Results reported in patent US9340577B2, “HLA binding motifs and peptides and their uses” (priority 1992, dated 2016).
pIC50: −log10 of the molar value. Residues, ends and D or L forms follow the SMILES beside them. No end group written: not given here.

What was measured:
Experiment in all cases: biochemical
Assay type in all cases: binding
HLA-A3.2 (A*0301) = HLA-A3.2 (A*0301) (Homo sapiens, UniProt P04439); settings: for A3.2: Table 164, MAGE peptides, binding value to HLA-A3.2, no unit given; for A*0301 binding: Table 11, binding value, no unit
HLA-A11 (A*1101) = HLA-A11 (A*1101) (Homo sapiens, UniProt P04439, A114D/D185E/E176A/F33Y/L180Q/S129P/T187R); parameters: A11: unit not given here
A31 (A*3101) = A31 (A*3101) (Homo sapiens, UniProt P04439, A270S/D185E/E176V/E277Q/F33T/G231S/G80R/H175R/I121M/I218V/I322F/K168Q/L300P/L318F/M331R/P217A/Q94H/R138Q/T323A/T345S/T97I/V358M)
A*3301 = A*3301 (Homo sapiens, UniProt P04439, A270S/D185E/E176V/E277Q/E87N/F33T/G231S/H175R/I121M/I218V/I322F/K168Q/K210R/L300P/L318F/M331R/P217A/Q86R/Q94H/R138Q/T323A/T345S/T97I/V358M/Y195H)
HLA-A*0201 (HLA-A2.1) = HLA-A*0201 (HLA-A2.1) (Homo sapiens, UniProt P04439, D140Y/D185E/D98H/E176V/E277Q/G131W/G231S/I119V/I121R/I166T/I218V/L300P/L318F/N151K/N90K/P208A/P217A/Q86G/Q94H/R138H/R169H/T345S)
A*6801 = A*6801 (Homo sapiens, UniProt P04439, A269V/D185E/E176V/E277Q/E87N/F33Y/G231S/I121M/I166T/I218V/L180W/L300P/L318F/N151K/P208A/P217A/Q86R/R169H/T345S)

Row | Compound | pIC50 (HLA-A3.2 (A*0301)) | pIC50 (HLA-A11 (A*1101)) | pIC50 (A31 (A*3101)) | pIC50 (A*3301) | also measured
1 | TVRHKKLMFK [Peptide 1556.79] | 6.36 | 6.73 | 5.29 | 4.93 | 
2 | VTIKIGGQIK [Peptide 1516.02] | 5.95 | 6.74 | 4.71 | < 4.70 | 
3 | VLYGPANTGK [Peptide 88.0180] | 8.01 | 7.60 | 5.71 |  | 
4 | KVCSGVDYR [Peptide 1589.35] | < 4.70 | 5.29 |  | 5.24 | 
5 | VVCTYSPALNK [Peptide 1556.35] | 6.43 | 6.98 | 5.28 | < 4.70 | 
6 | VVYRLVWDK [Peptide 1589.38] | 7.20 | 7.89 | 6.00 | 5.42 | 
7 | FLIIVLVMIA |  |  |  |  | A2.1 (HLA-A*0201 (HLA-A2.1)): 0.0003; A3.2 (HLA-A3.2 (A*0301)): 0.0093; A11 (HLA-A11 (A*1101)): 0.0030
8 | ALTALITPK [Peptide 9017.0099] | 7.77 | 7.80 | 6.36 |  | 
9 | NTKATLLYK [Peptide 88.0385] | 6.40 | 6.96 | 5.42 | 6.77 | 
10 | SLARRHIAR [Peptide 9017.0067] | 7.18 | 5.96 | 8.82 | 7.52 | 
11 | LVFGIDVKEA |  |  |  |  | A2.1 (HLA-A*0201 (HLA-A2.1)): 0.0002; A3.2 (HLA-A3.2 (A*0301)): <0.0002; A11 (HLA-A11 (A*1101)): 0
12 | KSLFGMSLMK [Peptide 1587.13] | 8.36 | 8.82 | 6.57 | < 4.70 | 
13 | VVPALSVSK [Peptide 1589.14] | 6.29 | 7.48 | < 4.70 | < 4.70 | 
14 | FAFTDLTIVY [Peptide 78.0103] | < 4.70 | < 4.70 | < 4.70 | < 4.70 | 
15 | TVDVYMIMVK [Peptide 9012.0257] | 4.95 | 7.02 | < 4.70 | < 4.70 | 
16 | VLCGPPNTGK [Peptide 88.0189] | 6.85 | 6.66 | 6.43 | < 4.70 | 
17 | GLYYIHGNEK [Peptide 1589.40] | 7.77 | 7.74 | 6.85 | 5.35 | 
18 | IVFIEYRKIR [Peptide 9017.0245] | 5.36 | 5.83 | 7.92 | 6.51 | 
19 | VLILALLRYK [Peptide 88.0144] | 7.28 | 6.58 |  |  | 
20 | LQMALETLSK [Peptide 88.0214] | 6.25 | 7.66 | 4.97 | < 4.70 | 
21 | ISKQPLPQTR [Peptide 9017.0207] | < 4.70 | < 4.70 | 7.08 | 5.59 | 
22 | KQFLQGVPK [Peptide 88.0390] | 7.49 | 7.77 | 7.36 | 5.29 | 
23 | VFGIDVKEA |  |  |  |  | A2.1 (HLA-A*0201 (HLA-A2.1)): <0.0002; A3.2 (HLA-A3.2 (A*0301)): <0.0002; A11 (HLA-A11 (A*1101)): 0
24 | 34.0232 (RVCACPGRDK) [Peptide 34.0232] |  |  |  |  | A*0301 binding (HLA-A3.2 (A*0301)): 0.0190; A*1101 binding (HLA-A11 (A*1101)): 0.0250

Row | Compound | pIC50 (HLA-A3.2 (A*0301)) | pIC50 (HLA-A11 (A*1101)) | pIC50 (A31 (A*3101)) | pIC50 (A*3301) | also measured
25 | RLIDRIRER [Peptide 9017.0123] | 7.44 | 6.86 | 8.34 | 6.03 | 
26 | QQRSLTEILK [Peptide 9012.0218] | 6.28 | 7.03 |  | < 4.70 | 
27 | SVRKLVEDR [Peptide 9017.0105] | 5.29 | 5.94 | 7.82 | 6.73 | 
28 | F119.01 (MSLQRQFLR) [Peptide F119.01] |  |  |  |  | A*0301 binding (HLA-A3.2 (A*0301)): 0.2000; A*1101 binding (HLA-A11 (A*1101)): 0.7200
29 | F119.02 (LLGPGRPYR) [Peptide F119.02] |  |  |  |  | A*0301 binding (HLA-A3.2 (A*0301)): 0.0190; A*1101 binding (HLA-A11 (A*1101)): 0.0091
30 | GVSIEWRQR [Peptide 9017.0087] | 4.88 | 5.91 | 6.47 | 5.68 | 
31 | FLGALKSFLK [Peptide 88.0148] | 7.57 | 6.92 | 6.49 |  | 
32 | VSIEWRKRR [Peptide 9017.0090] | 5.58 | 7.11 | 8.04 | 7.24 | 
33 | RIGILRQRR [Peptide 9017.0113] | 6.56 | 5.94 | 8.12 |  | 
34 | KQMSMSQWIK [Peptide 1587.09] | 7.31 | 7.77 | 7.30 |  | 
35 | TVWNPPTTAK [Peptide 1556.03] | 7.60 | 7.59 | 5.04 | 5.80 | 
36 | 34.0050 (RVCACPGR) [Peptide 34.0050] |  |  |  |  | A*0301 binding (HLA-A3.2 (A*0301)): 0.3500; A*1101 binding (HLA-A11 (A*1101)): 0.0490
37 | AAEGVGAVSR [Peptide 9017.0188] | 4.79 | 6.00 | 5.57 | 5.39 | 
38 | 34.0171 (SSBMGGMNK) [Peptide 34.0171] |  |  |  |  | A*0301 binding (HLA-A3.2 (A*0301)): 0.5440; A*1101 binding (HLA-A11 (A*1101)): 1.1000
39 | 34.0323 (RVCACPGRDRR) [Peptide 34.0323] |  |  |  |  | A*0301 binding (HLA-A3.2 (A*0301)): 0.0290; A*1101 binding (HLA-A11 (A*1101)): 0.0290
40 | STWHWTSDDK [Peptide 1589.43] | 6.47 | 7.33 | 5.28 | < 4.70 | 
41 | VVFGILIKRK [Peptide 9012.0246] | 7.27 | 7.89 | 5.59 | 4.99 | 
42 | CC[C@H](C)[C@H](NC(=O)[C@H](CS)NC(=O)[C@H](CCCNC(=N)N)NC(=O)[C@@H](NC(=O)[C@@H](N)CC(C)C)[C@@H](C)CC)C(=O)N[C@H](C(=O)N[C@@H](CS)C(=O)N[C@@H](CCC(N)=O)C(=O)N[C@@H](CCCCN)C(=O)O)[C@@H](C)CC [Peptide 88.0298] (H-LIRCIICQK-OH) | 6.35 | 6.60 | 6.19 | 6.08 | 
43 | FTDLTIVYR [Peptide 78.0313] | < 4.70 | 5.57 | 6.22 | 6.23 | 
44 | SQTCALYWFR [Peptide 88.0165] | 5.31 | 5.74 |  | 6.59 | 
45 | ALTALITPKK [Peptide 9017.0230] | 7.36 | 8.17 | 5.13 | < 4.70 | 
46 | EVYDGREHSA |  |  |  |  | A2.1 (HLA-A*0201 (HLA-A2.1)): 0; A3.2 (HLA-A3.2 (A*0301)): <0.0002; A11 (HLA-A11 (A*1101)): 0
47 | LQQTSLEMWR [Peptide 88.0228] | 4.88 | 6.35 |  | < 4.70 | 
48 | RFLSKISEYR [Peptide 1571.13] | 5.74 |  | 7.85 | 7.70 | pIC50 (A*6801): 7.77
